Laboratory results published in ChEMBL document CHEMBL1130584, “Synthesis of boronic acid analogs of L-arginine as alternate substrates or inhibitors of nitric oxide synthase” (Bioorg Med Chem Lett, 1998).

Tests used:
[1] = target: T1, Nitric oxide synthase, inducible (Homo sapiens, UniProt P35228); assay: Compound was tested for inhibitory activity against inducible nitric oxide synthase
Nitric oxide synthase 1 = Nitric oxide synthase 1 (Homo sapiens, UniProt P29475); assay: Compound was tested for inhibitory activity against neuronal nitric oxide synthase
[2] = target: T1, Nitric oxide synthase, inducible; assay: Compound was tested for inhibitory activity against inducible nitric oxide synthase using L-arginine as substrate

T1 sequence (P35228 whole entry): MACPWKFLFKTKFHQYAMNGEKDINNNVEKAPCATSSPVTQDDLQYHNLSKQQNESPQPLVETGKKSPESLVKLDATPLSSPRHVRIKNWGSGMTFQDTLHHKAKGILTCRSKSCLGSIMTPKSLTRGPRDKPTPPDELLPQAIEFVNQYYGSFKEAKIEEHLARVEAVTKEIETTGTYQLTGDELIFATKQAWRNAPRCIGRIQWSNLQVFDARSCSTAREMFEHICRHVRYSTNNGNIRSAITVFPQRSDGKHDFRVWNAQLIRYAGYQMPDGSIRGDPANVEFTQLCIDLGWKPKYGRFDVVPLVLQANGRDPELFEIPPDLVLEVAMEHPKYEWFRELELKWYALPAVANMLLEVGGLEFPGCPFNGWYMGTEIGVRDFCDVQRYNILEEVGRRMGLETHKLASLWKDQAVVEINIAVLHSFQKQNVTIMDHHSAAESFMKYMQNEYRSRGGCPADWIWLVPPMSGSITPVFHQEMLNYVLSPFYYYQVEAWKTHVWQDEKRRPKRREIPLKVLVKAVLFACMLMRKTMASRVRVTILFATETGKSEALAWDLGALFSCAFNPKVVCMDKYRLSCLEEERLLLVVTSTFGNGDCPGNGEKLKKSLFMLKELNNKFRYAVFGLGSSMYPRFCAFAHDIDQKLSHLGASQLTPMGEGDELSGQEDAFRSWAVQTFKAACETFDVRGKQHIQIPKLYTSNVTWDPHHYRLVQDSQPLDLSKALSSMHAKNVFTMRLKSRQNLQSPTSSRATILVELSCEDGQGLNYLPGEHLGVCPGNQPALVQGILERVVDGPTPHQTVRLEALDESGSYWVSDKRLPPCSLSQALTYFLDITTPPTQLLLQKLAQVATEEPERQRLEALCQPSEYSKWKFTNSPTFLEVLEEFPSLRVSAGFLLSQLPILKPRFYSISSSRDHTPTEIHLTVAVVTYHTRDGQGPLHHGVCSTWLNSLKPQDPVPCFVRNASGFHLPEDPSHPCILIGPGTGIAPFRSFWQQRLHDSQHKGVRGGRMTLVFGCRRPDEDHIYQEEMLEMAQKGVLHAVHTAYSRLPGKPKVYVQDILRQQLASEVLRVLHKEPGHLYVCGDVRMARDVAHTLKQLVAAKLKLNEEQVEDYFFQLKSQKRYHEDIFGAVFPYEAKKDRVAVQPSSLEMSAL
Chain of Nitric oxide synthase 1 (P29475 whole entry): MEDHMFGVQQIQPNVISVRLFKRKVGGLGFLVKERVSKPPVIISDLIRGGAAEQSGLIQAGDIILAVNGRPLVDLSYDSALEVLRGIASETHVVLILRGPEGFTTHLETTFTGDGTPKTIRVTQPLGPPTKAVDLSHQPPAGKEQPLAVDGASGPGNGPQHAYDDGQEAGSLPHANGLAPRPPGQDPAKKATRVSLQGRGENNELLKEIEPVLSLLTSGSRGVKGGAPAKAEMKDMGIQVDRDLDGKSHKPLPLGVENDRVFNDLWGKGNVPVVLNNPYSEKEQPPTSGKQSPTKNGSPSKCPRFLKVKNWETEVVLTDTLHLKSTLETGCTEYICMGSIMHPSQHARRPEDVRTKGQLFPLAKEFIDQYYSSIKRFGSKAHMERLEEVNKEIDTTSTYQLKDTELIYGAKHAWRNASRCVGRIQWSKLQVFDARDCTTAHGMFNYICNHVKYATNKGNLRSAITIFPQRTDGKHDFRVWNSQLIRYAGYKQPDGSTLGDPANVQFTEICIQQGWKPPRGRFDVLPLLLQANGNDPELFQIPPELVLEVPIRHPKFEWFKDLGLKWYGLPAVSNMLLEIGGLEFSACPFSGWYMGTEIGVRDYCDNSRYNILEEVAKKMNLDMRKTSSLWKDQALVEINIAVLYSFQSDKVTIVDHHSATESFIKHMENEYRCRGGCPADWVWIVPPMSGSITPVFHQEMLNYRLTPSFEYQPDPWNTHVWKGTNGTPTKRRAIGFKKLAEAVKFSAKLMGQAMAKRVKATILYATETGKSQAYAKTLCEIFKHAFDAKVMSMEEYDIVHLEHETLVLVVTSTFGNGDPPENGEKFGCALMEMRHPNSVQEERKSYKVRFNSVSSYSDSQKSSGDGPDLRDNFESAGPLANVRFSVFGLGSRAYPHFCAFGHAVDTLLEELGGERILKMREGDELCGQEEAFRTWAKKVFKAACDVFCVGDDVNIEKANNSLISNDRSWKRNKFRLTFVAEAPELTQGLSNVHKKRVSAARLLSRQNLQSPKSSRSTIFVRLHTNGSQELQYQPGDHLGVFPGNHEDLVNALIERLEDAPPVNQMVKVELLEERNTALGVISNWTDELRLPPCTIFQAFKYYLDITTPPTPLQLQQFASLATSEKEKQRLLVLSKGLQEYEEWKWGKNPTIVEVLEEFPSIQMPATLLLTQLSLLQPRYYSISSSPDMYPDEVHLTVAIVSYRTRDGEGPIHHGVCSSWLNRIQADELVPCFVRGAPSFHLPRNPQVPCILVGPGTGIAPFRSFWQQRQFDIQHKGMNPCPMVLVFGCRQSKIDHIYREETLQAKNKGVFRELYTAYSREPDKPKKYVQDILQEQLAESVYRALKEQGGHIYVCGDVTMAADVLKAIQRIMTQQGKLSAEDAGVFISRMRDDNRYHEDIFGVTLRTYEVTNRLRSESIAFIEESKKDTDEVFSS

IC50 [1]	IC50 (Nitric oxide synthase 1)	Ks [2]	SMILES
> 500 µM	> 500 µM		CC(=O)N[C@@H](CCCN=C(N)N)B(O)O
50 µM	300 µM	200 µM	NC(N)=NCCC[C@H](N)B(O)O
